This note sets out measurements from article PMC7930575, “Comparison of the Inhibitory Binding Modes Between the Planar Fascaplysin and Its Nonplanar Tetrahydro-β-carboline Analogs in CDK4” (Frontiers in Chemistry, 2021).

The structures appear in SMILES notation.

Data set [1] deals with HeLa. In words: MTT cytotoxicity assay, HeLa cells, 48 h. The class given is cell-based. As to conditions: Homo sapiens, MTT assay, three independent experiments, read-out: Cytotoxicity (IC50, μM) HeLa. On the procedure:
(§1) The cytotoxicity of the target compounds was evaluated via MTT assay; A549, HeLa, HepG2, and WI-38 were selected for the experiment; and the selected cell lines were purchased from Lanzhou Weihuan Biotechnology Development Co., Ltd. All cell lines were maintained in RPMI-1640 medium supplemented with 10% fetal calf serum under the environment of 5% CO2 concentration and 37°C. The incubated tumor cells were seeded in the prepared 96-well plates, respectively, to make them attach for 12 h. Afterward, the cells were processed with the synthesized compounds with different concentrations as well as fascaplysin as the reference group for 48 h. After 48 h, 10 μl of MTT solution (5 mg/ml in PBS) was added into each well and incubated for 4 h. Then, the medium was removed and 100 μl DMSO was added to dissolve the blue-colored formazan. The absorbance was detected at 570 nm by microplate reader to calculate the inhibition rate (%) and the IC50 was defined using GraphPad Prism Software (version 5.02) (shown in Table 1).
On the technique in general: Tetrazolium assays rely on reduction of a dye to a coloured formazan, in cell work by metabolically active cells.

Data set [2] has as its target T1, CDK4/CycD3 (Homo sapiens, UniProt P11802).
T1 construct: purchased Cama
In words: CDK4 kinase inhibition assay (mobility shift assay). The format is biochemical. As to conditions: mean of three independent experiments. Here is the method:
In this study, the inhibitory activities of the synthesized compounds against CDK4/CycD3 were also evaluated using mobility shift assay, and fascaplysin was used as the positive control compound. CDK4/CycD3 was from Cama, kinase substrate peptide was from GL, and fascaplysin was from Selleckchem. First, the kinase base buffer should be prepared (50.0 mmol/L HEPES, pH 7.5, 5 mM MgCl2, 1 mmol DTT, 0.0015% Brij-35). Second, 50 μg CDK4 kinase was added to the kinase base buffer to prepare the kinase solution. The kinase base buffer was used to prepare ATP and substrate peptide solutions, and the obtained solutions were mixed. Third, the synthesized compounds as well as the fascaplysin were diluted with DMSO to the desired concentrations. Fourth, the reaction mixture was incubated at 30°C for 40 min, and 25 μl stop buffer was added to stop the reaction. Finally, conversion was read by Caliper, and GraphPad Prism 5.0 was used to calculate the IC50 values of the compounds against enzyme bioactivities (Table 2).

Data set [3] in a line: MTT cytotoxicity assay, normal cells WI-38, 48 h. The format is cell-based. As to conditions: human, WI-38 cells (normal cell line); normal cell line, MTT assay, 48 h, three independent experiments; read-out: Cytotoxicity (IC50, μM) WI-38. Here is the method: as §1
In data set [4] the test system is A549. In words: MTT cytotoxicity assay, A549 cells, 48 h. The class given is cell-based. Conditions: Homo sapiens, A549; MTT assay, 48 h, three independent experiments; read-out: Cytotoxicity (IC50, μM) A549. On the procedure: as §1
In data set [5] the test system is HepG2. The data set is described as follows: MTT cytotoxicity assay, HepG2 cells, 48 h. The class given is cell-based. Conditions: Homo sapiens, HepG2; MTT assay, 48 h, three independent experiments; read-out: Cytotoxicity (IC50, μM) HepG2. On the procedure:
as §1

T1 sequence (P11802 whole entry): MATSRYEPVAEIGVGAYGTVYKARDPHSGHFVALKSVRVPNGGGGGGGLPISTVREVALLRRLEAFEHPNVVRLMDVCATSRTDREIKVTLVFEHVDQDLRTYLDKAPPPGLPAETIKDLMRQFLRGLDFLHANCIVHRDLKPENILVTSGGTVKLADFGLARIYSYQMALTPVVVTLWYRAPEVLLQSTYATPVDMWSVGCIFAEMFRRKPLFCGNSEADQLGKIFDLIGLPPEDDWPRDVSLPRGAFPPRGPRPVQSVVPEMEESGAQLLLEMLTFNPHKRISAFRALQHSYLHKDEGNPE
T1 sequence (P30281 whole entry partner): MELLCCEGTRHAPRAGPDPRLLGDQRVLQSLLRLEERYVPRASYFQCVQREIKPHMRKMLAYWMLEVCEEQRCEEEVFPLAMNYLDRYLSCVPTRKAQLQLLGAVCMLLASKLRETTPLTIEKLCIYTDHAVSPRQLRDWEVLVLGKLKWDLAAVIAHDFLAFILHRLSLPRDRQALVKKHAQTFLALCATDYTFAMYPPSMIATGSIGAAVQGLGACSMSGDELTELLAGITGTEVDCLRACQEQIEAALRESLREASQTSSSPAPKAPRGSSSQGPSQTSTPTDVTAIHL

On to `CCOC(=O)C1c2[nH]c3ccccc3c2CCN1C(=O)c1ccc(F)cc1` (stereo not drawn) [Compound 7a, Ethyl-2-(4-fluorobenzoyl)-2,3,4,9-tetrahydro-1H-pyrido [3,4-b] indole-1-carboxylate], for which the melting point (in general, the temperature of the solid-liquid transition) was in the range of 199.5 to 201.7 °C. Moreover, in data set [1], the IC50 – broadly, the concentration that inhibits the measured activity by half – was 29.6 ± 7.07 µM. Further, the IC50 in data set [2] was determined as 31.6 µM. Further, in data set [3], the half-inhibitory concentration (IC50) at 48 h turned out to be 255 ± 86.3 µM. Besides, the IC50 in data set [4] stood at 39.5 ± 4.98 µM. Further, the IC50 in data set [5] is 47.5 ± 4.11 µM.
